In ChEMBL document CHEMBL1201862, “PubChem BioAssay data set” (2004):
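Cultured in 96-well plates, cells were exposed to test compound for 48 hours across five concentrations. Abbreviation: GI50, concentration required for 50% inhibition of growth.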 The source made the active and inactive calls. No stated cut-off is given here; in the data, active = GI50 up to about 1.1 µM and inactive = higher.

Columns and labels:
Test in all cases: NCI anticancer screen, dose series, 48 h
786-0 = system: 786-0
A498 = system: A498
CAKI-1 = system: CAKI-1
CCRF-CEM = system: CCRF-CEM
HOP-62 = system: HOP-62
Hs-578T = system: Hs-578T
K562 = system: K562
LOX IMVI = system: LOX IMVI
MDA-N = system: MDA-N
MOLT-4 = system: MOLT-4
NCI-H226 = system: NCI-H226
OVCAR-3 = system: OVCAR-3
OVCAR-4 = system: OVCAR-4
SF-539 = system: SF-539
SNB-75 = system: SNB-75
SW-620 = system: SW-620
T47D = system: T47D
SR = system: SR

Row | SMILES | GI50 (786-0) | GI50 (A498) | GI50 (CAKI-1) | GI50 (CCRF-CEM) | GI50 (HOP-62) | GI50 (Hs-578T) | GI50 (K562) | GI50 (LOX IMVI) | GI50 (MDA-N) | GI50 (MOLT-4) | GI50 (NCI-H226) | GI50 (OVCAR-3) | GI50 (OVCAR-4) | GI50 (SF-539) | GI50 (SNB-75) | GI50 (SW-620) | GI50 (T47D) | GI50 (SR)
1 | CC1(C)C=CC(=O)C(O)C(C)(C)C1=O (stereo unspecified) | 96.2 µM (inactive) | > 100 µM (inactive) | > 100 µM (inactive) | 0.13 µM (active) | 53.6 µM (inactive) | 28.8 µM (inactive) | 30.3 µM (inactive) | 28.7 µM (inactive) | 52.8 µM (inactive) | 7.05 µM (inactive) | > 100 µM (inactive) | 29.1 µM (inactive) | > 100 µM (inactive) | 73.6 µM (inactive) | 38.7 µM (inactive) | 77.6 µM (inactive) | > 100 µM (inactive) | 
2 | COc1cc(C2C3=C(N=C4SC(C(C)=O)=C(C)N42)c2ccccc2CC3)cc(OC)c1OC (stereo unspecified) | > 100 µM (inactive) | > 100 µM (inactive) |  | > 100 µM (inactive) | 97.9 µM (inactive) | 50.4 µM (inactive) | 26.4 µM (inactive) | > 100 µM (inactive) | 28.7 µM (inactive) | > 10 µM (inactive) | > 100 µM (inactive) | > 100 µM (inactive) | > 100 µM (inactive) | > 100 µM (inactive) | 53.7 µM (inactive) | > 100 µM (inactive) | 11.4 µM (inactive) | 
3 | N#Cc1nnn(-c2ccc(Br)cc2)c1O | > 100 µM (inactive) | > 100 µM (inactive) | > 100 µM (inactive) | > 100 µM (inactive) | > 100 µM (inactive) | > 100 µM (inactive) | > 100 µM (inactive) | > 100 µM (inactive) | 46.9 µM (inactive) | 10 µM (inactive) | > 100 µM (inactive) | > 100 µM (inactive) | > 100 µM (inactive) | > 100 µM (inactive) | > 100 µM (inactive) | > 100 µM (inactive) | > 100 µM (inactive) | 
4 | CC(=O)OCc1ccc(-c2nc(C#N)c(N)o2)o1 | > 10 µM (inactive) |  | > 10 µM (inactive) | > 10 µM (inactive) | > 10 µM (inactive) | > 10 µM (inactive) | > 10 µM (inactive) | > 10 µM (inactive) | > 10 µM (inactive) | > 10 µM (inactive) | > 10 µM (inactive) |  | > 10 µM (inactive) | > 10 µM (inactive) | > 10 µM (inactive) | > 10 µM (inactive) | > 10 µM (inactive) | > 10 µM (inactive)
5 | CN1C(=O)[C@@H]2[C@@H]3c4ccccc4N(S(=O)(=O)C(F)(F)F)[C@@H]3c3[nH]c4ccccc4c3[C@@H]2C1=O | 63.7 µM (inactive) | > 100 µM (inactive) | > 100 µM (inactive) | 25.2 µM (inactive) | > 100 µM (inactive) | 19.7 µM (inactive) | 7.28 µM (inactive) | > 100 µM (inactive) | > 100 µM (inactive) | 4.3 µM (inactive) | 5.52 µM (inactive) | 22.6 µM (inactive) | 82.4 µM (inactive) | > 100 µM (inactive) | 13.2 µM (inactive) | > 100 µM (inactive) |  | 4.9 µM (inactive)
6 | Cc1ccnn1CCc1ccc(Cl)cc1Cl |  |  | 28.1 µM (inactive) | 25.4 µM (inactive) | 15 µM (inactive) | 22.9 µM (inactive) | 29.1 µM (inactive) | 33 µM (inactive) | 44.3 µM (inactive) | 13.1 µM (inactive) |  | 20.5 µM (inactive) | 11.7 µM (inactive) | 18.2 µM (inactive) | 14.5 µM (inactive) | 54.8 µM (inactive) | 8.97 µM (inactive) | 21.9 µM (inactive)
7 | C[C@]12CC[C@H](O)CC1=CC[C@@H]1[C@@H]2CC[C@]2(C)C(=O)CC[C@@H]12 [PRASTERONE] | > 100 µM (inactive) |  | > 100 µM (inactive) |  |  | 45.6 µM (inactive) |  | > 100 µM (inactive) | > 100 µM (inactive) | > 100 µM (inactive) | > 100 µM (inactive) | > 100 µM (inactive) | > 100 µM (inactive) | > 100 µM (inactive) | > 100 µM (inactive) | > 100 µM (inactive) | > 100 µM (inactive) | > 100 µM (inactive)
8 | CC(C)=CCc1c(O)c(CC2=C(O)C(CC=C(C)C)(C(=O)C(C)C)C(O)=C(C)C2=O)c(O)c(C(=O)C(C)C)c1O (stereo unspecified) | 10.7 µM (inactive) | 9.57 µM (inactive) | 17.5 µM (inactive) | 5.78 µM (inactive) | 11.3 µM (inactive) | 9.89 µM (inactive) | 8.61 µM (inactive) | 9.48 µM (inactive) | 14.3 µM (inactive) | 2.31 µM (inactive) | 7.93 µM (inactive) | 12.2 µM (inactive) | 15.8 µM (inactive) | 13.8 µM (inactive) | 13.6 µM (inactive) | 24 µM (inactive) | 8.45 µM (inactive) | 
9 | O=C(C1C(c2ccccc2)N1C(c1ccccc1)c1ccccc1)C1C(c2ccccc2)N1C(c1ccccc1)c1ccccc1 (stereo unspecified) | 21.3 µM (inactive) |  |  | 3.61 µM (inactive) | > 100 µM (inactive) | 20.2 µM (inactive) | 3.66 µM (inactive) |  | 28.9 µM (inactive) | 6.9 µM (inactive) |  |  | 38.1 µM (inactive) | 20 µM (inactive) | 45.6 µM (inactive) | 5.14 µM (inactive) | 28.4 µM (inactive) | 3.51 µM (inactive)
10 | COc1ccc(C2=C(N)c3c(Cl)cccc3C2=O)cc1 | > 100 µM (inactive) | > 100 µM (inactive) | > 100 µM (inactive) | > 100 µM (inactive) | 70 µM (inactive) | 26.1 µM (inactive) |  | > 100 µM (inactive) | > 100 µM (inactive) | 95.1 µM (inactive) | > 100 µM (inactive) | > 100 µM (inactive) | > 100 µM (inactive) | > 100 µM (inactive) | > 100 µM (inactive) | > 100 µM (inactive) | 78 µM (inactive) | 
11 | CC(=O)[C@H]1CC[C@@H]2[C@]1(C)CC=C1[C@]23C=C[C@]2(C[C@@H](O)CC[C@]12C)C(C(=O)O)C3C(=O)O (stereo partly specified) | > 100 µM (inactive) | > 100 µM (inactive) | > 100 µM (inactive) | > 100 µM (inactive) | > 100 µM (inactive) | > 100 µM (inactive) | > 100 µM (inactive) | > 100 µM (inactive) | > 100 µM (inactive) | > 100 µM (inactive) | > 100 µM (inactive) | > 100 µM (inactive) | > 100 µM (inactive) | > 100 µM (inactive) | > 100 µM (inactive) | > 100 µM (inactive) | > 100 µM (inactive) | 
12 | O=C1CC2(CCC(O)(c3cccc4ccccc34)C(C(=O)c3cccc4ccccc34)C2)C(=O)c2ccccc2N1 (stereo unspecified) |  | > 100 µM (inactive) | 25.9 µM (inactive) | > 10 µM (inactive) | 10.5 µM (inactive) | 6.78 µM (inactive) | 15.6 µM (inactive) | 32.8 µM (inactive) | 18.4 µM (inactive) | 25.9 µM (inactive) | > 100 µM (inactive) | 39.9 µM (inactive) |  | 48 µM (inactive) | 10.7 µM (inactive) | 24.2 µM (inactive) | 34.5 µM (inactive) | 14.2 µM (inactive)
13 | Oc1ccc(C(=C(Br)c2ccccc2)c2ccc(O)cc2)cc1 | 9.77 µM (inactive) | 18.3 µM (inactive) | 16.6 µM (inactive) | 7.52 µM (inactive) | 10.4 µM (inactive) | 4.83 µM (inactive) | 2.78 µM (inactive) | 4.08 µM (inactive) | 1.83 µM (inactive) | 5.48 µM (inactive) | 15.8 µM (inactive) | 3.15 µM (inactive) | > 10 µM (inactive) | 6.18 µM (inactive) |  | 3.57 µM (inactive) | 10.7 µM (inactive) | 
14 | O=C1C(N2CCNCC2)=C(Cl)C(=O)c2ncccc21 | > 10 µM (inactive) |  | > 10 µM (inactive) | 8.59 µM (inactive) | > 10 µM (inactive) | > 10 µM (inactive) | > 10 µM (inactive) |  | 4.47 µM (inactive) | 2.44 µM (inactive) | > 10 µM (inactive) | > 10 µM (inactive) | > 10 µM (inactive) | > 10 µM (inactive) | > 10 µM (inactive) | 3.72 µM (inactive) | > 10 µM (inactive) | > 10 µM (inactive)
15 | CCCNC(C#N)c1ccc(C(C#N)NCCC)cc1 (stereo unspecified) | > 100 µM (inactive) | > 100 µM (inactive) | > 100 µM (inactive) | 24.4 µM (inactive) |  | > 100 µM (inactive) | 37.8 µM (inactive) | > 100 µM (inactive) | 36.3 µM (inactive) | 37.3 µM (inactive) | > 100 µM (inactive) | > 100 µM (inactive) | > 100 µM (inactive) | > 100 µM (inactive) |  | > 100 µM (inactive) | > 100 µM (inactive) | 
16 | C=C[C@@](C)(/C=C/c1ccc(O)cc1)CCC=C(C)C [BAKUCHIOL] |  | 21.2 µM (inactive) | 18.6 µM (inactive) | 14.8 µM (inactive) | 19.1 µM (inactive) | 20.9 µM (inactive) | 15.7 µM (inactive) | 18.2 µM (inactive) | 17.3 µM (inactive) | 13.1 µM (inactive) | 19 µM (inactive) | 18.3 µM (inactive) | 14 µM (inactive) |  | 14 µM (inactive) | 17 µM (inactive) | 14 µM (inactive) | 16.5 µM (inactive)
17 | Nc1nc(Cl)cc(NCC2(CCO)CCC2)n1 | > 100 µM (inactive) |  | > 100 µM (inactive) | > 100 µM (inactive) | > 100 µM (inactive) | > 100 µM (inactive) | > 100 µM (inactive) | > 100 µM (inactive) | > 100 µM (inactive) | > 100 µM (inactive) | > 100 µM (inactive) | > 100 µM (inactive) | > 100 µM (inactive) | > 100 µM (inactive) | > 10 µM (inactive) | > 100 µM (inactive) | 22.2 µM (inactive) | > 100 µM (inactive)
